{"source": "patent US8021848B2", "about": "“Rapid and sensitive detection of cells and viruses” (Straus Holdings Inc., priority 2001, dated 2011)", "key": {"[1]": {"test_system": "E. coli MG1655 (sensitive strain)", "assay": "Rapid antimicrobial susceptibility testing (broth dilution, large area CCD imaging)", "assay_type": "cell-based", "details": "after 4 hours of growth; comparable by CCD imaging, liquid culture or colony counting", "protocol": "(§1) Cells of two strains, one resistant and one sensitive, were tested for their ability to grow in a period of several hours in the antibiotic. Growth was detected by large area imaging of individual cells stained with a fluorescent nucleic acid stain.\n(§2) Experimental procedure. […] Also at these times points both a visible turbidity growth check and a plate count were performed. The turbidity check was performed according to NCCLS broth dilution guidelines. A “+” was recorded for a turbid culture and a “−” for non-turbid culture. The 1 ml aliquots were then stained with Syber Green I as in Example 2. Aliquots (10 μl) of the stained cells were placed in separate wells (with optically clear bottoms) of a 96 well plate (Greiner America, Inc.; cat. num. 655896), which contained 90 μl of water (Type I quality). The plates were spun in a centrifuge (Beckman Allegra) for 10 min at 600 g and then imaged. Fluorescence was detected by imaging using a CCD imager (described in Step 6 of Detailed description section and shown in FIG. 3) with an FITC optical filter set (Chroma/excitation 470/40 nm, emission 522/40 nm). Image-Pro Plus software, version 4.1 (Media cybernetics) was used to capture and process images from the CCD Imager."}, "[2]": {"test_system": "E. coli MG1655/pLAFRI (resistant strain)", "details": "after 4 hours of growth; comparable by CCD imaging, liquid culture or colony counting", "protocol": "as §1, §2"}}, "data": [{"smiles": "CN(C)[C@@H]1C(O)=C(C(N)=O)C(=O)[C@@]2(O)C(O)=C3C(=O)c4c(O)cccc4[C@@](C)(O)[C@H]3C[C@@H]12", "note": "[tetracycline]", "values": [{"measurement": "antibiotic concentration that inhibited growth of the antibiotic sensitive strain", "setting": "[1]", "value": 0.25, "unit": "µg/mL"}, {"measurement": "antibiotic concentration in which dramatic growth of the resistant strain was evident", "setting": "[2]", "value": 64, "unit": "µg/mL"}]}]}
